Results published in patent publication US8481553B2, “Antimetastatic compounds” (Brigham Young University, priority 2010, dated 2013).

tested on: MDCK cells; experiment: HGF-induced epithelial-mesenchymal transition / migration of MDCK cells on transwell filters (crystal violet densitometry); assay type: cell-based; details: Canis lupus familiaris, MDCK; test compound 10 μM, then HGF, 24 hours; percentage value like the untreated controls (unstimulated cells = maximal effect, HGF treated cells without compound = nil effect)
Procedure: MDCK cells were seeded at confluency into the wells of a transwell filter in DMEM with 10% fetal bovine serum. Cells were cultured for 24 hours. Test compounds, dissolved in DMSO, were added to each test well to a 10 μM final concentration, and then hepatocyte growth factor (HGF) was then added. The MDCK cells were cultured for 24 hours. Concurrently, controls treated with and without HGF and with no test compounds were also prepared.
After post-HGF addition culturing, transwell filters were prepared by repeated washing using ice cold PBS. The cells were then fixed with paraformaldehyde (3.7%) on ice for 15 minutes to the filters. After fixation, the transwell filters were washed repeatedly with PBS followed by staining with crystal violet for 15 minutes. The transwell filters were washed again with distilled water.
The upper surface of the transwell filters were swabbed using a cotton-tipped probe. The filters were photographed using a gel documentation system. Densitometry measurements were made on the test samples and compared with control samples.

Row | SMILES | inhibition at 10 µM [%]
1 | C=CCc1ccccc1OCC(=O)N/N=C/c1ccc(C)cc1C [Compound 1] | 97
2 | C=CCc1ccccc1OCC(=O)N/N=C/c1ccc(Cl)cc1 [Compound 2] | 67.3
3 | C=CCc1ccccc1OCC(=O)N/N=C/c1cccc(Oc2ccccc2)c1 [Compound 3] | 70.9
4 | CCOc1ccccc1OCC(=O)N/N=C/c1ccc(O)cc1O [Compound 4] | 32.3
5 | N#Cc1ccccc1OCC(=O)N/N=C/c1ccccc1O [Compound 5] | 41.1
6 | N#Cc1ccccc1OCC(=O)N/N=C/c1ccccc1 [Compound 6] | 44.2
7 | N#Cc1ccccc1OCC(=O)N/N=C/c1ccc(Cl)cc1 [Compound 7] | 86.8
8 | N#Cc1ccccc1OCC(=O)N/N=C/c1ccc(Cl)cc1Cl [Compound 8] | 55.1
9 | C=CCOc1ccccc1/C=N/NC(=O)COc1ccccc1CC=C [Compound 9] | 49.5
10 | C=CCc1ccccc1OCC(=O)N/N=C/c1cccc(CC=C)c1O [Compound 10] | 44.8
11 | N#Cc1ccccc1OCC(=O)N/N=C/c1ccc([N+](=O)[O-])cc1 [Compound 11] | 83.7
12 | N#Cc1ccccc1OCC(=O)N/N=C/c1cccc(Br)c1 [Compound 12] | 67.7
13 | N#Cc1ccccc1OCC(=O)N/N=C/c1c(Cl)cccc1Cl [Compound 13] | 86
14 | CCc1ccccc1OCC(=O)N/N=C/c1ccc(Br)cc1 [Compound 14] | 100
15 | CCOc1ccccc1OCC(=O)N/N=C/c1ccc(O)c(O)c1 [Compound 15] | 72.8
16 | O=c1[nH]c(CCc2ccccc2)nc2sc3c(c12)CCCC3 [Compound A-1] | 96.9
17 | O=c1[nH]c(NCc2ccccc2)nc2sc3c(c12)CCCC3 [Compound A-2] | 92.2
18 | O=C1c2cccc3cccc(c23)C(=O)N1CCc1nc2sc3c(c2c(=O)[nH]1)CCCC3 [Compound A-3] | 73.4
19 | O=c1[nH]c(/C=C/c2ccccc2)nc2sc3c(c12)CCCC3 [Compound A-4] | 90.8
20 | O=c1[nH]c(SCc2ccccc2)nc2sc3c(c12)CCc1ccccc1-3 [Compound A-5] | 77.3
21 | Cc1noc(C)c1CSc1nc2sc3c(c2c(=O)n1-c1ccccc1)CCCC3 [Compound A-7] | 31.3
22 | Cc1nc(CSc2nc3[nH]ncc3c(=O)n2-c2ccccc2)cs1 [Compound A-8] | 49.6
23 | O=C(CSc1nc2sc3c(c2c(=O)n1Cc1ccccc1)CCCC3)N1CCCC1 [Compound A-9] | 50
24 | Cc1noc(C)c1CSc1nc2[nH]ncc2c(=O)n1-c1ccccc1 [Compound A-10] | 63.1
25 | O=C(O)CCc1nc2sc3c(c2c(=O)[nH]1)CCCC3 [Compound A-12] | 100
26 | O=c1[nH]c(SC/C=C/c2ccccc2)nc2sc3c(c12)CCCC3 [Compound A-13] | 90.5
27 | C=C(C)CSc1nc2sc3c(c2c(=O)[nH]1)CCCC3 [Compound A-14] | 100

Row | SMILES | inhibition at 10 µM [%]
28 | CCOC(=O)/C=C/CSc1nc2sc3c(c2c(=O)[nH]1)CCCC3 [Compound A-15] | 71.3
29 | O=C1c2cccc3cccc(c23)C(=O)N1CCCc1nc2sc3c(c2c(=O)[nH]1)CCCC3 [Compound A-16] | 70.1
30 | COc1cc(/C=C/c2ccc3cccc(OC)c3n2)cc(OC)c1OC [Compound B-1] | 96.8
31 | CCOc1cc(/C=C/c2ccc3cccc(O)c3n2)ccc1OC [Compound B-2] | > 5
32 | COc1cc(/C=C/c2ccc3cccc(O)c3n2)ccc1O [Compound B-3] | > 5
33 | CCOc1ccc(/C=C/c2ccc3cccc(OC)c3n2)cc1OC [Compound B-5] | > 5
34 | COc1ccc(/C=C/c2ccc3cccc(OC)c3n2)cc1Cl [Compound B-6] | > 5
35 | COc1cc(/C=C/c2ccc3cccc(OC)c3n2)ccc1OC(C)=O [Compound B-7] | > 5
36 | Oc1cccc2ccc(/C=C/c3ccc(Cl)c(Cl)c3)nc12 [Compound B-8] | > 5
37 | COc1cc(/C=C/c2ccc3cccc(OC)c3n2)cc(Br)c1OC [Compound B-9] | > 5
38 | CCOc1cccc(/C=C/c2ccc3cccc(OC)c3n2)c1 [Compound B-10] | 76.1
39 | COc1cccc2ccc(/C=C/c3ccc(Br)cc3)nc12 [Compound B-11] | 61.4
40 | COc1cc(OC)c(OC)cc1/C=C/c1ccc2cccc(OC)c2n1 [Compound B-12] | 50.6
41 | CCOc1cc(/C=C/c2ccc3cccc(OC(=O)CC)c3n2)cc(Br)c1OC [Compound B-13] | 62.2
42 | COc1c(OC(C)=O)ccc(/C=C/c2ccc3cccc(OC)c3n2)c1[N+](=O)[O-] [Compound B-14] | 61.1
43 | CCOc1cccc(/C=C/c2ccc3cccc(OC)c3n2)c1OC(C)=O [Compound B-15] | 53.1
44 | COc1cc(/C=C/c2ccc3cccc(OCc4ccccc4Cl)c3n2)cc(OC)c1OC [Compound B-17] | 100
45 | COc1cc(/C=C/c2ccc3cccc(OCc4ccccc4)c3n2)ccc1OC(C)=O [Compound B-18] | 100
46 | COc1cccc2ccc(/C=C/c3cccc([N+](=O)[O-])c3)nc12 [Compound B-20] | 92.4
47 | COc1cccc2ccc(/C=C/c3cc(I)ccc3OC(C)=O)nc12 [Compound B-21] | 72.5
48 | COc1cc(Cl)cc(/C=C/c2ccc3cccc(OC)c3n2)c1OC(C)=O [Compound B-22] | 98.1
49 | COc1cc(Br)cc(/C=C/c2ccc3cccc(OC)c3n2)c1OC [Compound B-23] | 72.8
50 | CCC(=O)Oc1c(OC)cc(/C=C/c2ccc3cccc(OC(=O)CC)c3n2)cc1OC [Compound B-24] | 98.1
51 | COc1cc(/C=C/c2ccc3cccc(OCc4ccc(Cl)cc4)c3n2)cc(OC)c1OC(C)=O [Compound B-25] | 78.8
52 | CCc1ccc(/C=C/c2ccc3cccc(O)c3n2)cc1 [Compound B-26] | 81.1
53 | Oc1c(Br)cc(Cl)cc1/C=C/c1ccc2cccc(O)c2n1 [Compound B-27] | 100

same assay, conditions: test compound 10 μM, then HGF, 24 hours; percentage value like the untreated controls (unstimulated cells = maximal effect, HGF treated cells without compound = nil effect)

Row | SMILES | Assay Value [%]
54 | Cc1cccc(OCC(=O)N/N=C/c2cccc(I)c2)c1 [Compound 16] | <5
55 | Cc1cc(C)c(OCC(=O)N/N=C/c2ccccc2)c(C)c1 [Compound 17] | <5
56 | COc1ccccc1/C=N/NC(=O)COc1c(C)cc(C)cc1C [Compound 18] | <5
57 | COc1ccc(/C=N/NC(=O)COc2ccccc2C)cc1 [Compound 19] | <5
58 | Cc1ccc(OCC(=O)N/N=C/c2ccccc2)cc1 [Compound 20] | <5
59 | Cc1cc(C)c(/C=N/NC(=O)COc2ccccc2)c(C)c1 [Compound 21] | <5
60 | Cc1ccc(OCC(=O)N/N=C/c2ccc(C(=O)O)cc2)c(C)c1 [Compound 22] | <5
61 | Cc1cccc(OCC(=O)N/N=C/c2ccc(O)cc2)c1C [Compound 23] | <5
62 | COc1cccc(/C=N/NC(=O)COc2cc(C)ccc2C(C)C)c1 [Compound 24] | <5
63 | Cc1ccc(C)c(OCC(=O)N/N=C/c2ccc(CC(=O)O)cc2)c1C [Compound 25] | <5
64 | Cc1ccccc1OCC(=O)N/N=C/c1ccc(F)cc1 [Compound 26] | <5
65 | O=C(COc1ccccc1Br)N/N=C/c1cccc(Br)c1 [Compound 28] | <5
66 | O=C(COc1ccc2ccccc2c1)N/N=C/c1ccccc1Br [Compound 30] | <5
67 | O=C(COc1ccc2ccccc2c1)N/N=C/c1ccccc1 [Compound 31] | <5
68 | COc1ccccc1/C=N/NC(=O)COc1ccccc1OC [Compound 32] | <5
69 | COc1ccccc1OCC(=O)N/N=C/c1ccc(Cl)cc1 [Compound 33] | <5
70 | Cc1ccc(/C=N/NC(=O)COc2ccccc2Br)c(C)c1 [Compound 34] | <5
71 | O=C(COc1cccc(Br)c1)N/N=C/c1ccc(Cl)cc1 [Compound 35] | <5
72 | Cc1ccc(/C=N/NC(=O)COc2cccc(Br)c2)c(C)c1 [Compound 36] | <5
73 | O=C(COc1ccccc1Br)N/N=C/c1ccccc1Br [Compound 37] | <5
74 | O=C(COc1ccc(Br)cc1)N/N=C/c1ccc(Cl)cc1 [Compound 38] | <5
75 | Cc1noc(C)c1CSc1nc2sc3c(c2c(=O)n1-c1ccccc1)CCC3 [Compound A-6] | 55.1
76 | O=C(CSc1nc2sc3c(c2c(=O)n1-c1ccccc1)CCCC3)c1cccs1 [Compound A-17] | <5
77 | CC1CCc2c(sc3nc(Cc4ccccc4)[nH]c(=O)c23)C1 (centres unmarked) [Compound A-18] | <5
78 | CC1CCc2c(sc3nc(SCC(=O)N4CCOCC4)n(Cc4ccccc4)c(=O)c23)C1 (centres unmarked) [Compound A-20] | <5
79 | O=C(CSc1nc2sc3c(c2c(=O)n1Cc1ccccc1)CCCC3)N1CCCC1 [Compound A-21] | <5
80 | CC1CCCCN1C(=O)CSc1nc2sc3c(c2c(=O)n1-c1ccccc1)CCC3 (centres unmarked) [Compound A-22] | <5
81 | CC1CCN(C(=O)CSc2nc3sc4c(c3c(=O)[nH]2)CCCC4)CC1 [Compound A-25] | <5
82 | Oc1cccc2ccc(/C=C/c3ccc(OC4CCCC4)cc3)nc12 [Compound B-16] | 100
83 | Oc1cccc2ccc(/C=C/c3ccc(OCc4ccccc4)cc3)nc12 [Compound B-19] | 91.0
